The conditions of this data set: instrument: DT, single field, calibrated with Agilent tune mix (Agilent).

Values joined by “and” are separate entries in the source; they are usually repeats but may differ in a detail not shown here. Equal entries are not always repeated.

With `N[C@@H](CS(=O)(=O)O)C(=O)O` [L-Cysteic acid], under “[M-H]-”, the “collision cross section (N2)” value is given as 120.55 Å².
On to `OC[C@H](O)[C@@H](O)[C@H](O)[C@@H](O)CO` [L-Iditol], for which the “collision cross section (N2)” value came out at 143 Å² ([M+Na]+) and 129.61 Å² ([M-H]-).
For `CCCCCCCCCCCCCCCC(=O)O[C@H](CC(=O)[O-])C[N+](C)(C)C` [L-Palmitoylcarnitine], the “collision cross section (N2)” value is recorded as 214 Å² ([M+H]+) and 204.49 Å² ([M-H]-).
As to `CC(C)C[C@H](N)C(=O)N1CCC[C@H]1C(=O)O` [L-leucyl-L-proline], the “collision cross section (N2)” value ([M+H-H2O]+) was found to be 149.5 Å².
For the compound `CC(C)=CCC[C@@H](C)[C@H]1CC[C@@]2(C)C3=C(CC[C@]12C)[C@@]1(C)CC[C@H](O)C(C)(C)[C@@H]1CC3` [Lanosterol], the “collision cross section (N2)” value ([M+H-H2O]+) is on record as 207.3 Å².
In the case of `C[C@H](CCC(=O)O)[C@H]1CC[C@H]2[C@@H]3CC[C@@H]4C[C@H](O)CC[C@]4(C)[C@H]3CC[C@]12C` [Lithocholic acid], the “collision cross section (N2)” value ([M+H-H2O]+) was 193.4 Å² and the “collision cross section (N2)” value ([M-H]-) was found to be 199.95 Å².
Take `O=P(O)(O)OC1C(OP(=O)(O)O)C(OP(=O)(O)O)C(OP(=O)(O)O)C(OP(=O)(O)O)C1OP(=O)(O)O` (stereo not drawn) [Myo-inositol hexakisphosphate]: the “collision cross section (N2)” value ([M-H]-) came out at 193.29 Å².
Regarding `CCCCCCCCCCCCCC(=O)O` [Myristic acid], under “[M-H]-”, the “collision cross section (N2)” value is recorded as 159.21 Å².
On to `CC(=O)N[C@@H](CCCN)C(=O)O` [N2-Acetyl-L-ornithine], for which, where the note is “[M+H]+”, the “collision cross section (N2)” value is on record as 136.9 Å².
`CNc1ncnc2c1ncn2[C@@H]1O[C@H](CO)[C@@H](O)[C@H]1O` [N6-methyladenosine]: the “collision cross section (N2)” value is on record as 170.4 Å² ([M+Na]+) and 159.67 Å² ([M-H]-).
As for `CC(=O)NCCCCNCCCN` [N8-Acetylspermidine], the “collision cross section (N2)” value ([M+H]+) came out at 142.7 Å² and the “collision cross section (N2)” value ([M-H]-) is recorded as 146.34 Å².
For `CC(=O)N[C@H]1[C@H](O[C@H]2[C@H](O)[C@@H](NC(C)=O)C(O)O[C@@H]2CO)O[C@H](CO)[C@@H](O)[C@@H]1O` (stereo partly drawn) [N,N'-Diacetylchitobiose], the “collision cross section (N2)” value ([M+H]+) is given as 192.9 Å².
For `NC(=NCCCC(N)C(=O)O)NO` (stereo not drawn) [N-(omega)-Hydroxyarginine], the “collision cross section (N2)” value came to 139 Å² ([M+H]+) and 138.2 Å² ([M-H]-).
Turning to `CC(=O)N[C@@H](CC(=O)O)C(=O)O` [N-Acetyl-L-aspartic acid], the “collision cross section (N2)” value ([M+Na]+) is listed as 139 Å² and the “collision cross section (N2)” value ([M-H]-) is given as 129.21 Å².
In the case of `CC(=O)N[C@@H](Cc1ccccc1)C(=O)O` [N-Acetyl-L-phenylalanine], the “collision cross section (N2)” value is, setting by setting: ([M+Na]+) 149.8 Å²; ([M-H]-) 144.2 Å².
For `CC(=O)N[C@@H](CC(=O)O)C(=O)N[C@@H](CCC(=O)O)C(=O)O` [N-Acetylaspartylglutamate (NAAG)], for the setting “[M+Na]+”, the “collision cross section (N2)” value was found to be 166.3 Å².
As to `CC(=O)N[C@@H](CC(=O)O)C(=O)N[C@@H](CCC(=O)O)C(=O)O` [N-Acetylaspartylglutamate], the “collision cross section (N2)” value ([M-H2O-H]-) was 156.77 Å².
In the case of `CC(=O)N[C@@H](CCC(N)=O)C(=O)O` [N-Acetylglutamine], the “collision cross section (N2)” value by setting is: ([M+Na]+) 144.4 Å²; ([M-H]-) 136.82 Å².
Consider `CSCC[C@H](NC=O)C(=O)O` [N-Formylmethionine], for which the “collision cross section (N2)” value ([M-H]-) was 134.09 Å².
As to `NC(=O)c1ccc[n+]([C@@H]2O[C@H](COP(=O)(O)OP(=O)(O)OC[C@H]3O[C@@H](n4cnc5c(N)ncnc54)[C@H](OP(=O)(O)O)[C@@H]3O)[C@@H](O)[C@H]2O)c1` [Nicotinamide adenine dinucleotide phosphate (NADP)], the “collision cross section (N2)” value ([M+H]+) worked out at 230.9 Å².
For `NC(=O)c1ccc[n+]([C@@H]2O[C@H](COP(=O)(O)OP(=O)(O)OC[C@H]3O[C@@H](n4cnc5c(N)ncnc54)[C@H](OP(=O)(O)O)[C@@H]3O)[C@@H](O)[C@H]2O)c1` [Nicotinamide adenine dinucleotide phosphate], for the setting “[M-H]-”, the “collision cross section (N2)” value came out at 228.27 Å².
Turning to `NC(=O)c1ccc[n+]([C@@H]2O[C@H](COP(=O)([O-])O)[C@@H](O)[C@H]2O)c1` [Nicotinamide ribotide], the “collision cross section (N2)” value ([M+H]+) was 165.2 Å².
With `NC[C@H](O)c1ccc(O)c(O)c1` [Norepinephrine], the “collision cross section (N2)” value is 137.3 Å² and 136.8 Å² ([M+H-H2O]+); 131.99 Å² ([M-H]-).
`NCCOP(=O)(O)O` [O-Phosphoethanolamine]: the “collision cross section (N2)” value ([M-H]-) was 121.6 Å².
As for `N[C@@H](Cc1ccc(OP(=O)(O)O)cc1)C(=O)O` [O-Phosphotyrosine], the “collision cross section (N2)” value is given as 162.2 Å² ([M+H]+) and 149.33 Å² ([M+Na-2H]-).
On to `CCCCCCCC(=O)SCCNC(=O)CCNC(=O)[C@H](O)C(C)(C)COP(=O)(O)OP(=O)(O)OC[C@H]1O[C@@H](n2cnc3c(N)ncnc32)[C@H](O)[C@@H]1OP(=O)(O)O` [Octanoyl-CoA], for which, for the setting “[M-H]-”, the “collision cross section (N2)” value stood at 268.72 Å².
With `CCCCCCCCCCCCCCCC(=O)SCCNC(=O)CCNC(=O)[C@H](O)C(C)(C)COP(=O)(O)OP(=O)(O)OC[C@H]1O[C@@H](n2cnc3c(N)ncnc32)[C@H](O)[C@@H]1OP(=O)(O)O` [Palmitoyl CoA], the “collision cross section (N2)” value was determined as 296.2 Å² ([M+H]+) and 296.46 Å² ([M-H]-).
Consider `CC(C)(CO)[C@@H](O)C(=O)NCCC(=O)O` [Pantothenate], for which the “collision cross section (N2)” value ([M+H]+) was 148.1 Å².
On to `O=C(O)c1ccc(O)c(O)c1` [Protocatechuic acid], for which the “collision cross section (N2)” value ([M+H-H2O]+) was 122.3 Å².
In the case of `Cc1ncc(COP(=O)(O)O)c(CN)c1O` [Pyridoxamine 5'-phosphate], the “collision cross section (N2)” value ([M+H]+) was 150.9 Å².
As to `O=c1c(O)c(-c2ccc(O)c(O)c2)oc2cc(O)cc(O)c12` [Quercetin], the “collision cross section (N2)” value ([M+H]+) is recorded as 166.7 Å² and the “collision cross section (N2)” value ([M-H]-) is given as 158.98 Å².
`O=C(O)c1cccnc1C(=O)O` [Quinolinate]: the “collision cross section (N2)” value ([M+H-H2O]+) came to 130.5 Å².
Regarding `CC1=C(/C=C/C(C)=C/C=C/C(C)=C/C=O)C(C)(C)CCC1` [Retinene], the “collision cross section (N2)” value ([M+H]+) came to 170.1 Å².
Take `Cc1cc2nc3c(=O)[nH]c(=O)nc-3n(C[C@H](O)[C@H](O)[C@H](O)CO)c2cc1C` [Riboflavin (Vitamin B2)]: the “collision cross section (N2)” value amounted to 188.3 Å² ([M+H]+) and 184.12 Å² ([M-H]-).
Turning to `CSC[C@H]1O[C@@H](n2cnc3c(N)ncnc32)[C@H](O)[C@@H]1O` [S-Methyl-5'-thioadenosine], the “collision cross section (N2)” value ([M+H]+) was 162.5 Å².
`O=C(O)CNC(=O)c1ccccc1O` [Salicyluric acid]: the “collision cross section (N2)” value ([M-H]-) was 133.01 Å².
With `C[C@H](O)C(=O)C1=Nc2c([nH]c(N)nc2=O)NC1` [Sepiapterin], the “collision cross section (N2)” value runs as follows: ([M+H]+) 152.8 Å²; ([M-H2O-H]-) 144.47 Å².
With `NCCCCNCCCN` [Spermidine], where the note is “[M+H]+”, the “collision cross section (N2)” value was found to be 131.9 Å².
Regarding `CCCCCCCCCCCCCCCCCC(N)=O` [Stearamide], the “collision cross section (N2)” value ([M+H]+) worked out at 188.3 Å².
As for `CCCCCCCCCCCCCCCCCC(=O)O[C@H](CC(=O)[O-])C[N+](C)(C)C` [Stearoylcarnitine], for the setting “[M+H]+”, the “collision cross section (N2)” value is recorded as 221.1 Å².
For `C[C@H](CCC(=O)NCCS(=O)(=O)O)[C@H]1CC[C@H]2[C@@H]3[C@H](O)C[C@@H]4C[C@H](O)CC[C@]4(C)[C@H]3CC[C@]12C` [Taurochenodeoxycholate], the “collision cross section (N2)” value came to 207.4 Å² ([M+Na]+) and 205.39 Å² ([M-H]-).
Turning to `C[C@H](CCC(=O)NCCS(=O)(=O)O)[C@H]1CC[C@H]2[C@@H]3CC[C@@H]4C[C@H](O)CC[C@]4(C)[C@H]3C[C@H](O)[C@]12C` [Taurodeoxycholic acid], the “collision cross section (N2)” value is 204.5 Å² ([M+H]+) and 204.37 Å² ([M-H]-).
Regarding `C[C@H](CCC(=O)NCCS(=O)(=O)O)[C@H]1CC[C@H]2[C@@H]3CC[C@@H]4C[C@H](O)CC[C@]4(C)[C@H]3CC[C@]12C` [Taurolithocholic acid], the “collision cross section (N2)” value reads like this: ([M+H-H2O]+) 220.6 Å²; ([M-H]-) 204.62 Å².
As to `O=C(O)CCCCC1CCSS1` (stereo not drawn) [Thioctic acid], under “[M+H-H2O]+”, the “collision cross section (N2)” value is on record as 133.8 Å².
Take `OC[C@H]1O[C@H](O[C@H]2O[C@H](CO)[C@@H](O)[C@H](O)[C@H]2O)[C@H](O)[C@@H](O)[C@@H]1O` [Trehalose]: the “collision cross section (N2)” value ([M+Na]+) was 174.9 Å².
For `CCCCCCCCCCCCC(=O)O` [Tridecanoic acid], the “collision cross section (N2)” value ([M-H]-) was determined as 155.16 Å².
The same measure, in the same setting: next, `CCCCCCCCCCC(=O)O` [Undecanoic Acid]: 148.87 Å².
For the compound `O=c1ccn([C@@H]2O[C@H](COP(=O)(O)O)[C@@H](O)[C@H]2O)c(=O)[nH]1` [Uridine 5'-monophosphate], where the note is “[M+Na]+”, the “collision cross section (N2)” value stood at 171.8 Å².
`O=C(O)/C=C/c1cnc[nH]1` [Urocanic acid]: the “collision cross section (N2)” value runs as follows: ([M+H]+) 134.1 Å²; ([M-H]-) 118.78 Å².
In the case of `O=P(O)(O)OC1O[C@H](CO)[C@@H](O)[C@H](O)[C@H]1O` (stereo partly drawn) [a-D-Galactose 1-phosphate], the “collision cross section (N2)” value runs as follows: ([M+Na]+) 157.5 Å²; ([M-H]-) 145.32 Å².
In the case of `C[C@]12CC[C@@H]3c4ccc(O)cc4CC[C@H]3[C@@H]1CC[C@@H]2O` [beta-Estradiol], the “collision cross section (N2)” value ([M+H-H2O]+) was 159.7 Å².
Turning to `NC(=O)c1ccc[n+]([C@@H]2O[C@H](COP(=O)([O-])O)[C@@H](O)[C@H]2O)c1` [beta-Nicotinamide D-ribonucleotide], the “collision cross section (N2)” value ([M]+) was determined as 165.2 Å².
Take `Nc1nc(=O)c2ncn([C@H]3C[C@H](O)[C@@H](COP(=O)(O)OP(=O)(O)O)O3)c2[nH]1` [dGDP]: where the note is “[M+H]+”, the “collision cross section (N2)” value is on record as 187.7 Å².

The record behind these values is the C3SDB collision cross section collection.
